# Activity calls are given as the source filed them. The calls are words filed in the database; no cut-off is given here.
# Biological target: T1, Cereblon isoform 4 (Magnetospirillum gryphiswaldense, UniProt A4TVL0)
# T1 sequence (A4TVL0 whole entry): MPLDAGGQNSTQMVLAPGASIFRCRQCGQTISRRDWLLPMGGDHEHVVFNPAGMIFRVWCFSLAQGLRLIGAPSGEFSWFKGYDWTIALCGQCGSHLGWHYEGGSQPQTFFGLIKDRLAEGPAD
# Experiment: Binding affinity to Magnetospirillum gryphiswaldense cereblon isoform 4 by measuring baseline corrected normalized fluorescence by MST based assay
IC50,Ki,Compound
3.53 µM,0.642 µM,O=C1CCC(=O)N1 [SUCCINIMIDE]

# Biological target: T2, Protein cereblon (Homo sapiens, UniProt Q96SW2)
# Experiment: Binding affinity to human CRBN-thalidomide binding domain expressed in Escherichia coli by measuring baseline corrected normalized fluorescence by MST based assay
Activity,IC50,Ki,Compound
inactive,–,–,O=C1CN(/N=C/c2ccccc2)C(=O)N1
–,202 µM,102 µM,COc1ccc(C2CNC(=O)C2)cc1OC1CCCC1 (stereo unspecified) [ROLIPRAM]
inactive,–,–,O=C1CN(/N=C/c2ncc(-c3ccc(Br)cc3)o2)C(=O)N1
–,15.6 µM,4.71 µM,COc1c(-c2ccc3cc(NS(C)(=O)=O)ccc3c2)cc(-n2ccc(=O)[nH]c2=O)cc1C(C)(C)C [DASABUVIR]
–,22.3 µM,8.19 µM,O=C1CCC(=O)N1 [SUCCINIMIDE]
–,757 µM,390 µM,O=c1ccn([C@@H]2O[C@H](CO)[C@@H](O)[C@H]2O)c(=O)[nH]1 [URIDINE]
–,> 5000 µM,–,O=C1CNCN1
–,84.8 µM,40.7 µM,Nn1ccc(=O)[nH]c1=O
–,137 µM,67.8 µM,CN1CC(=O)NC1=O
inactive,–,–,O=C1CN(/N=C/c2ccccc2[N+](=O)[O-])C(=O)N1
–,421 µM,216 µM,O=C1CNC(=O)N1 [HYDANTOIN]
–,> 1000 µM,–,O=C1CN(/N=C/C=C/c2ccc([N+](=O)[O-])o2)C(=O)N1 [FURAZIDIN]
–,415 µM,212 µM,O=c1cc[nH]c(=O)[nH]1 [URACIL]
inactive,–,–,O=C1CN(/N=C/c2ccc([N+](=O)[O-])o2)C(=O)N1
–,447 µM,229 µM,NN1CC(=O)NC1=O
–,332 µM,169 µM,O=C1CNC(=S)N1 [THIOHYDANTOIN]

Compound,Activity,IC50,Ki
CC(C)OC(=O)[C@H](C)N[P@](=O)(OC[C@H]1O[C@@H](n2ccc(=O)[nH]c2=O)[C@](C)(F)[C@@H]1O)Oc1ccccc1 [SOFOSBUVIR],–,> 1000 µM,–
O=c1ccn([C@@H]2O[C@H](COP(=O)(O)O)[C@@H](O)[C@H]2O)c(=O)[nH]1,–,> 5000 µM,–

# Biological target: T2, Protein cereblon
# Experiment: Competitive binding affinity to human CRBN-thalidomide binding domain expressed in Escherichia coli by FRET assay
row,Ki,Compound
1,137 µM,C[S+](C)[O-] [DIMETHYL SULFOXIDE]
